Measurements reported in paper PMC7698965 (Cancers, 2020).
Where two headings read alike, the source gives them in different places.

Key:
[1] = tested on: F98-cell; design: method as in earlier work; details: post-neutron irradiation (2 Gy), cited from earlier work
[2] = tested on: U87 MG; details: 24 h incubation, SRB; cited from earlier work
[3] = tested on: C6; details: cited from earlier work; for IC50: 24 h incubation, SRB
[4] = tested on: HT-29; details: 24 h incubation, SRB; cited from earlier work
[5] = tested on: S. typhimurium TA98; experiment: Ames test; details: TA98, positive control NPD 20.0 mg/plate
[6] = tested on: S. typhimurium TA100; experiment: Ames test; details: TA100, positive control NPD 2.0 mg/plate
[7] = tested on: U87 MG cells co-cultured with neonatal murine astrocytes; experiment: Confocal microscopy of treated co-cultures (PKH26, DAPI); assay type: cell-based, human; details: IC50,U87 MG doses, 24 h
[8] = tested on: U87 MG cells; experiment: Cell cycle/DNA content by flow cytometry; assay type: cell-based, human; details: 24 h at IC50 (1 8.0 μM, Sun 32 μM)
[9] = tested on: astrocytes; experiment: Cell cycle/DNA content by flow cytometry; assay type: cell-based, mouse; details: 24 h at IC50 (1 8.0 μM, Sun 32 μM)
[10] = tested on: AMPK; details: read-out: IC50,Sun,AMPK; cited from earlier work
[11] = tested on: RSK1; details: read-out: IC50,Sun,RSK1; cited from earlier work
[12] = tested on: U87 MG human glioblastoma; experiment: In vivo anti-glioblastoma activity
[13] = 1 at 1 mg/kg/day, Tmz at 4 mg/kg/day, ip three times a week

10B-boronophenylalanine fructose [Compound 10BPA-fr]
Surviving Fraction ([1]; 0.1 ppm equivalents of 10B): 89 ± 11%
Surviving Fraction ([1]; 1.0 ppm equivalents of 10B): 71 ± 11%
Surviving Fraction ([1]; 10.0 ppm equivalents of 10B): 92 ± 6%

C#Cc1cccc(Nc2ncnc3cc(OCCOC)c(OCCOC)cc23)c1 [Erl, erlotinib]
IC50 [2]: 63 ± 5 µM
IC50 [3]: > 100 µM
IC50 [4]: > 100 µM

CS(=O)(=O)CCNCc1ccc(-c2ccc3ncnc(Nc4ccc(OCc5cccc(F)c5)c(Cl)c4)c3c2)o1 [Lap, lapatinib]
IC50 [2]: 54 ± 14 µM
IC50 [3]: > 100 µM
percent of cells survival at 100 μM ([3]; C6, 100 μM): 89 ± 5%
percentages of cell survival at 100 μM ([3]; C6, 100 μM): 89 ± 5%
IC50 [4]: 6.25 ± 0.05 µM

Nc1ccc([N+](=O)[O-])cc1N [Positive control, 4-Nitro-o-phenylendiamine]
Number of revertants [5]: 295 ± 11
Number of revertants [6]: 704 ± 6

CCN(CC)CCNC(=O)c1c(C)[nH]c(/C=C2\C(=O)Nc3ccc(F)cc32)c1C [Sun, sunitinib]
DAPI nuclei staining [7]: chromatin condensation
U87 MG population (PKH26 dye) compared to the control [7]: decrease of U87 MG population
effect on cell cycle distribution [8]: increase in the percentage of both astrocytes and U87 MG cells in the sub-G1 phase
effect on cell cycle distribution [9]: increase in the percentage of both astrocytes and U87 MG cells in the sub-G1 phase
IC50 [2]: 32 ± 4 µM
IC50 [3]: 36 ± 10 µM
IC50 [4]: 6.25 ± 0.04 µM
IC50 [10]: 0.32 µM

Cn1nnc2c(C(N)=O)ncn2c1=O [Tmz, temozolomide]
mouse survival time [12, 13]: 27 days
time to mouse deaths [12, 13]: 23 days
median survival ([12]; Tmz 4 mg/kg/day ip three times a week): 23 days
